According to patent US10323041B2, “Bicyclic derivatives, a process for their preparation and pharmaceutical compositions containing them” (LES LABORATOIRES SERVIER, priority 2015, dated 2019):

Legend:
Mcl-1 protein = Mcl-1 protein (Homo sapiens, UniProt Q07820); assay: Inhibition of Mcl-1 by the fluorescence polarisation technique; type: binding; settings: for IC50: Method 1 (not underlined) or Method 2 (underlined), underlining not visible, first value where cell prints two, read-out: IC50 (M) Mcl-1 FP
Mcl-1 protein, sequence (Q07820 whole entry): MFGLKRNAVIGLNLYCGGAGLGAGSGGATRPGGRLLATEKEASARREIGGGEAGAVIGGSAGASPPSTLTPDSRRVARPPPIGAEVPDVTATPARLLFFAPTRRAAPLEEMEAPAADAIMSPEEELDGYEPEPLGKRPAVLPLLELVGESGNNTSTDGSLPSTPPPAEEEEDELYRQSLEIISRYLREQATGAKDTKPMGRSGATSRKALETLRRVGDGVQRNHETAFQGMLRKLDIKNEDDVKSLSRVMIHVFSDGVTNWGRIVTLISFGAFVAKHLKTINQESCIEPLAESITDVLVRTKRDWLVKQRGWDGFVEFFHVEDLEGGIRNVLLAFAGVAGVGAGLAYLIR
Experimental: The relative binding potency of each compound was determined via fluorescence Polarisation (FP). The method utilised a Fluorescein labelled ligand Fluorescein-βAla-Ahx-[A-REIGAQLRRMADDLNAQY (SEQ ID NO: 1)]-OH; mw 2,765) which binds to the Mcl-1 protein (such that corresponds to the UniProtKB® primary accession number: Q07820) leading to an increased anisotropy measured in milli-polarisation (mP) units using a reader. The addition of a compound which binds competitively to the same site as the ligand will result in a greater proportion of unbound ligand in the system indicated by a decrease in mP units.
Method 1: An 11 point serial dilution of each compound was prepared in DMSO and 2 μl transferred into flat bottomed, low binding, 384-well plate (final DMSO concentration 5%). 38 μl of buffer (10 mM 4-(2-hydroxyethyl)-1-piperazineethanesulfonic acid [HEPES], 150 mM NaCl, 0.05% Tween 20, pH 7.4), containing the Fluorescein labelled ligand (final concentration 1 nM) and Mcl-1 protein (final concentration 5 nM) was then added.
(§1) Assay plates were incubated ˜2 hours at room temperature before FP was measured on a […] Synergy2 reader (Ex. 528 nm, Em. 640 nm, Cut off 510 nm) and mP units calculated. The binding of increasing doses of test compound was expressed as a percentage reduction in mP compared to a window established between ‘5% DMSO only’ and ‘100% inhibition’ controls. 11-point dose response curves were plotted with XL-Fit software using a 4-Parameter Logistic Model (Sigmoidal Dose-Response Model) and the inhibitory concentrations that gave a 50% reduction in mP (IC50) were determined. Results obtained using Method 1 are presented in Table 1 below; IC50 of Mcl-1 inhibition obtained using Method 1 are not underlined.
Method 2: An 11 point serial dilution of each compound was prepared in DMSO and 2 μl transferred into flat bottomed, low binding, 384-well plate (final DMSO concentration 5%). 38 μl of buffer (20 mM Na2HPO4, 1 mM EDTA, 50 mM NaCl, pH 7.4), containing the Fluorescein labelled ligand (final concentration 10 nM) and Mcl-1 protein (final concentration 10 nM) was then added.
as §1, with “inhibition’ controls (50 μM unlabelled ligand).” for “inhibition’ controls.”, “Method 2” for “Method 1”, “are” for “are not”

[1] = test system: H929 multiple myeloma tumour line; assay: In vitro cytotoxicity, Microculture Tetrazolium Assay on H929 cells; type: cell-based; settings: Homo sapiens, NCI-H929, exposed for 48 hours, cell viability, read-out: IC50 (M) MTT H929
Experimental: The cytotoxicity studies were carried out on the H929 multiple myeloma tumour line.
The cells are distributed onto microplates and exposed to the test compounds for 48 hours. The cell viability is then quantified by a colorimetric assay, the Microculture Tetrazolium Assay (Cancer Res., 1987, 47, 939-942).

SMILES	IC50 (Mcl-1 protein) [M]	percentage fluorescence polarization inhibition (Mcl-1 protein; @ 10 μM test compound, partial inhibitors) [% @ 10 μM]	inhibition at 10 µM (Mcl-1 protein; @ 10 μM test compound, partial inhibitors, read-out: percentage fluorescence polarization inhibition) [%]	IC50 [1] [M]
COc1ccccc1C[C@@H](Oc1ncnc2oc(-c3ccc(F)cc3)c(-c3ccc(OCCN4CCN(C)CC4)c(Cl)c3C)c12)C(=O)O [Example 3, (2R)-2-{[5-{3-chloro-2-methyl-4-[2-(4-methylpiperazin-1-yl)ethoxy]phenyl}-6-(4-fluorophenyl)furo[2,3-d]pyrimidin-4-yl]oxy}-3-(2-methoxyphenyl) propanoic acid]	1.7e-08	–	–	3.64e-07
Cc1c(-c2c(-c3ccc(F)cc3)oc3ncnc(O[C@H](Cc4ccccc4OCc4cnccn4)C(=O)O)c23)ccc(OCCN2CCN(C)CC2)c1Cl [Example 4, (2R)-2-{[5-{3-chloro-2-methyl-4-[2-(4-methylpiperazin-1-yl)ethoxy]phenyl}-6-(4-fluorophenyl)furo[2,3-d]pyrimidin-4-yl]oxy}-3-[2-(pyrazin-2-ylmethoxy)phenyl]propanoic acid]	2.9e-08	–	–	3.29e-07
Cc1c(-c2c(-c3ccc(Cl)o3)oc3ncnc(O[C@H](Cc4ccccc4OCc4cnccn4)C(=O)O)c23)ccc(OCCN2CCN(C)CC2)c1Cl [Example 5, (2R)-2-{[6-(5-chlorofuran-2-yl)-5-{3-chloro-2-methyl-4-[2-(4-methylpiperazin-1-yl)ethoxy]phenyl}furo[2,3-d]pyrimidin-4-yl]oxy}-3-[2-(pyrazin-2-ylmethoxy)phenyl]propanoic acid]	1.5e-08	–	–	6.19e-07
COc1ccccc1CC(Oc1cccc2oc(-c3ccc(F)cc3)c(-c3ccc(OCCN4CCN(C)CC4)c(Cl)c3C)c12)C(=O)O [Example 61, (2R)-2-{[(3Ra)-3-{3-chloro-2-methyl-4-[2-(4-methylpiperazin-1-yl)ethoxy]phenyl}-2-(4-fluorophenyl)-1-benzofuran-4-yl]oxy}-3-(2-methoxyphenyl)propanoic acid]	–	52.8	–	–

Continued, in another order:

IC50 (Mcl-1 protein) [M]	percentage fluorescence polarization inhibition (Mcl-1 protein; @ 10 μM test compound, partial inhibitors) [% @ 10 μM]	inhibition at 10 µM (Mcl-1 protein; @ 10 μM test compound, partial inhibitors, read-out: percentage fluorescence polarization inhibition) [%]	SMILES	IC50 [1] [M]
7.4e-09	–	–	COc1ccccc1-c1nccc(COc2ccccc2CC(Oc2cccc3oc(-c4ccc(F)cc4)c(-c4ccc(OCCN5CCN(C)CC5)c(Cl)c4C)c23)C(=O)O)n1 (single isomer, unassigned) [Example 64]	4.71e-08
2.4e-08	–	–	COc1ccccc1-c1nccc(COc2ccccc2CC(Oc2cccc3c2c(-c2ccc(OCCN4CCN(C)CC4)c(Cl)c2C)c(-c2ccc(F)cc2)n3C)C(=O)O)n1 (single isomer, unassigned) [Example 69]	1.04e-07
8.2e-07	–	–	COc1ccccc1CC(Oc1cccc2oc(-c3ccc(F)cc3)c(-c3ccc(OCCN4CCN(C)CC4)c(Cl)c3C)c12)C(=O)O [Example 62, (2R)-2-{[(3Sa)-3-{3-chloro-2-methyl-4-[2-(4-methylpiperazin-1-yl)ethoxy]phenyl}-2-(4-fluorophenyl)-1-benzofuran-4-yl]oxy}-3-(2-methoxyphenyl)propanoic acid]	–
1e-06	–	–	Cc1c(-c2c(-c3ccc(F)cc3)oc3cccc(OC(Cc4ccccc4OCC(F)(F)F)C(=O)O)c23)ccc(OCCN2CCN(C)CC2)c1Cl [Example 65, (2R)-2-{[(3Sa)-3-{3-chloro-2-methyl-4-[2-(4-methylpiperazin-1-yl)ethoxy]phenyl}-2-(4-fluorophenyl)-1-benzofuran-4-yl]oxy}-3-[2-(2,2,2-trifluoroethoxy)phenyl]propanoic acid]	–
1.6e-06	–	–	Cc1c(-c2c(-c3ccc(F)cc3)oc3cc(F)cc(OC(Cc4ccccc4OCC(F)(F)F)C(=O)O)c23)ccc(OCCN2CCN(C)CC2)c1Cl [Example 66, (2R)-2-{[(3Sa)-3-{3-chloro-2-methyl-4-[2-(4-methylpiperazin-1-yl)ethoxy]phenyl}-6-fluoro-2-(4-fluorophenyl)-1-benzofuran-4-yl]oxy}-3-[2-(2,2,2-trifluoroethoxy)phenyl]propanoic acid]	–
–	–	13.6	Cc1c(Cl)cccc1-c1csc2ccnc(N[C@H](Cc3ccccc3)C(=O)O)c12 [Example 70, N-[3-(3-chloro-2-methylphenyl)thieno[3,2-c]pyridin-4-yl]-D-phenylalanine]	–
